Square brackets hold non-standard residues; d marks the D form. Peptide text beside a SMILES is read from it. * marks the point of attachment. Nle = CCCC[C@H](N)C(=O)O; Cbz = O=C(OCc1ccccc1)*
Tests used:
[1] = test system: MDA-MB-231 breast cancer cells; experiment: z-Leu-Leu-Nle-CHO plus Paclitaxel, growth inhibition of MDA-MB-231 cells; format: cell-based, human; conditions: 0-0.8 μM with Paclitaxel, 48 h
Procedure: Three different types of breast cancer cells were contacted with varying concentrations of z-Leu-Leu-Nle-CHO (0-0.8 μM) and the mitotic poison Paclitaxel (0.01-1 μM). MDA-MB231 cells were obtained from ATCC (Rockville, Md.). T47D:C42 and T47D:A18 cells were a kind gift of Debra Tonetti (University of Illinois-Chicago). MDA-MB231 cells were cultured in DMEM medium with 10% FBS. T47D:C42 and T47D:A18 cells were propagated in RPMI 1640 with 10% FBS, 100 μM non-essential amino acid and 6 ng/ml insulin. Gamma-secretase inhibitor z-Leu-Leu-Nle-CHO (Calbiochem 565750) was dissolved in DMSO, aliquoted and stored at −80° C. Paclitaxel (Sigma, St. Louis Mo.) was dissolved in DMSO, aliquoted and stored at −80° C.
To determine whether z-Leu-Leu-Nle-CHO treatment potentiates the effect of Paclitaxel on human breast cancer cells, MDA-MB231, T47D:C42 and T47D:A18 cells were treated for 48 h with 0-0.8 μM z-Leu-Leu-Nle-CHO and various concentrations of Paclitaxel (0.008-1 μM) Following the z-Leu-Leu-Nle-CHO and Paclitaxel treatment, the cells were tested for growth inhibition as described above in Example 13.

[2] = test system: melanoma cell lines; experiment: Apoptosis of melanoma cell lines treated with z-Leu-Leu-Nle-CHO (Annexin V FITC / propidium iodide flow cytometry); format: cell-based, human; conditions: each of nine melanoma cell lines; 10 μM for 24 h
Procedure: The effect of z-Leu-Leu-Nle-CHO on apoptosis was tested in vitro using normal human melanocytes and several melanoma cell cultures. Prior to testing, cutaneous (C8161, SK-MeI-28, SK-MeI-100, SK-MeI-5, C81-61), uveal or ocular (MUM2B, MUM2C, OCM-1A), and pulmonary metastases (RJ002L) melanoma cell lines were maintained in RPMI supplemented with 10% FBS. Normal human melanocytes were isolated from neonatal foreskins as previously described (Qin J et al., 2004, Mol Cancer Ther 3:895-902) and cultured with medium 154 containing growth supplements (Cascade Biologics, Portland, Oreg.).
To assess the effect of z-Leu-Leu-Nle-CHO on the cell lines, the cells were grown in suitable culture media. Highly proliferating cells (i.e., cells that had reached approximately 30% confluency) were exposed to z-Leu-Leu-Nle-CHO as described below. […]
Following treatment with z-Leu-Leu-Nle-CHO, the melanoma and melanocyte cell cultures were assayed for apoptotic cells using the APO TARGET Annexin V FITC staining kit (Biosource, Camarillo, Calif.) according to the manufacturer's instructions followed by flow cytometric analysis using FACScaliber (Becton Dickinson, Palo Alto, Calif.) as described in Qin, J. et al., 2001, Nat Med 7:385-386. In some cases, cell cycle and apoptosis analysis was measured using propidium iodide staining and flow cytometry as described. […]

[3] = test system: T47D:A18 breast cancer cells; experiment: Cytotoxicity assay in T47D:A18 breast cancer cells; format: cell-based; conditions: T47D:A18 (p53 wild-type, ERα-positive); 48 h; read-out: IC50, cell growth inhibition
Procedure: Cytotoxicity and growth of transfected cells were estimated by a standard assay used for cancer drug screening, through the total amount of TCA-precipitated cell proteins after drug treatment (Likhitwitayawuid, K et al., 1993, J Nat Prod 56:30-38): 200 μl of cell suspension (10^5 cells/ml) were added to each well in a 96-well plate. After incubation at, 37° C., in 5% CO2 (30 minutes to 72 hours depending on the time course chosen), 50 μl 50% trichloroacetic acid was added to each well. After incubation at 4° C. for 1 hour, precipitates were washed with water 4-5 times and air dried overnight. One hundred μl of SRB solution (0.4% sulforhodamine B in 1% acetic acid, filtered before use) was added to each well for 30 minutes. Wells were washed with 1% acetic acid 4-5 times and air dried. Two hundred μl 10 mM Tris base was added to each well. Plates were shaken for 5-10 minutes and OD at 490 nm (OD490) was recorded via ELISA reader. To assay matrix invasion, 300 μl of cell suspension (10^6 cells/mL in serum-free medium) were added to invasion inserts (BioCoat Matrigel Invasion Chambers, Becton Dickinson, Bedford, Mass.) and incubated for 22 hours at 37° C., 5% CO2. Cells were stained with 0.9% crystal violet in 10% ethanol for 20 minutes. […] After removal of the non-invading cells from the interior of the inserts, stained invading cells were lysed in 10% acetic acid and OD595 was determined. […]

[4] = test system: SAOS-2 osteosarcoma cells; experiment: z-Leu-Leu-Nle-CHO on NOXA and apoptosis in SAOS-2 osteosarcoma cells; format: cell-based; conditions: 10 μM

SMILES: CCCC[C@@H](C=O)NC(=O)[C@H](CC(C)C)NC(=O)[C@H](CC(C)C)NC(=O)OCc1ccccc1 [z-Leu-Leu-Nle-CHO, N-benzyloxycarbonyl-leucyl-leucyl-norleucinal] (Cbz-Leu-Leu-[Nle]-aldehyde)
- effect on Paclitaxel cell growth inhibition [1]: moderately potentiated the effects of Paclitaxel on cell growth inhibition
- induction of apoptosis [2]: triggered a dose-dependent increase in apoptosis
- IC50 [3]: 0.57 µM
- NOXA expression ([4]; SAOS-2, p53 null): induced expression of NOXA
- dead cells ([4]; SAOS-2, after 24 hrs, data not shown): > 50%
